How the values were obtained:
Assay in all cases: relative viability (nuclei count vs DMSO), 5 days (fraction); higher = more cells survive
Afatinib + Pictilisib = compound: CN(C)C/C=C/C(=O)Nc1cc2c(Nc3ccc(F)c(Cl)c3)ncnc2cc1O[C@H]1CCOC1 [Afatinib] + CS(=O)(=O)N1CCN(Cc2cc3nc(-c4cccc5[nH]ncc45)nc(N4CCOCC4)c3s2)CC1 [Pictilisib] (partner 1 µM)
In short: (§1)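 Five library-drug doses in √10 steps were combined with a fixed anchor-drug dose, or a single drug was given alone, by pin tool to lung cancer cell lines in 1536-well plates the day after seeding. Nuclei were stained and counted after 5 days. Relative viability is the nuclei count in treated wells over that in vehicle wells, taken as the median of duplicate plates.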

Afatinib + Palbociclib = compound: CN(C)C/C=C/C(=O)Nc1cc2c(Nc3ccc(F)c(Cl)c3)ncnc2cc1O[C@H]1CCOC1 [Afatinib] + CC(=O)c1c(C)c2cnc(Nc3ccc(N4CCNCC4)cn3)nc2n(C2CCCC2)c1=O [Palbociclib] (partner 0.5 µM)
In short: as §1

Afatinib + Decitabine = compound: CN(C)C/C=C/C(=O)Nc1cc2c(Nc3ccc(F)c(Cl)c3)ncnc2cc1O[C@H]1CCOC1 [Afatinib] + Nc1ncn([C@H]2C[C@H](O)[C@@H](CO)O2)c(=O)n1 [Decitabine] (partner 2 µM)
In short: as §1

Afatinib + Phenformin = compound: CN(C)C/C=C/C(=O)Nc1cc2c(Nc3ccc(F)c(Cl)c3)ncnc2cc1O[C@H]1CCOC1 [Afatinib] + N=C(N)NC(=N)NCCc1ccccc1 [Phenformin] (partner 250 µM)
In short: as §1

Cell Line	relative viability (Afatinib + Pictilisib; first compound 0.005 µM)	relative viability (Afatinib + Pictilisib; first compound 0.01581 µM)	relative viability (Afatinib + Pictilisib; first compound 0.05 µM)	relative viability (Afatinib + Pictilisib; first compound 0.1581 µM)	relative viability (Afatinib + Pictilisib; first compound 0.5 µM)	relative viability (Afatinib + Palbociclib; first compound 0.005 µM)	relative viability (Afatinib + Palbociclib; first compound 0.01581 µM)	relative viability (Afatinib + Palbociclib; first compound 0.05 µM)	relative viability (Afatinib + Palbociclib; first compound 0.1581 µM)	relative viability (Afatinib + Palbociclib; first compound 0.5 µM)	relative viability (Afatinib + Decitabine; first compound 0.005 µM)	relative viability (Afatinib + Decitabine; first compound 0.01581 µM)	relative viability (Afatinib + Decitabine; first compound 0.05 µM)	relative viability (Afatinib + Decitabine; first compound 0.1581 µM)	relative viability (Afatinib + Decitabine; first compound 0.5 µM)	relative viability (Afatinib + Phenformin; first compound 0.005 µM)	relative viability (Afatinib + Phenformin; first compound 0.01581 µM)	relative viability (Afatinib + Phenformin; first compound 0.05 µM)	relative viability (Afatinib + Phenformin; first compound 0.1581 µM)	relative viability (Afatinib + Phenformin; first compound 0.5 µM)
LCLC-103H	0.621	0.572	0.642	0.62	0.482	0.452	0.495	0.443	0.436	0.485	0.714	0.774	0.727	0.704	0.718	0.319	0.358	0.326	0.37	0.353
NCI-H441	0.431	0.504	0.436	0.481	0.31	0.234	0.231	0.163	0.183	0.207	0.241	0.233	0.225	0.277	0.229	0.92	0.748	0.916	0.736	0.797
SK-LU-1	0.713	0.537	0.561	0.564	0.531	0.355	0.416	0.413	0.396	0.4	0.641	0.674	0.661	0.621	0.619	0.634	0.536	0.605	0.511	0.47
BEN	0.563	0.532	0.565	0.601	0.589	0.447	0.565	0.535	0.455	0.484	0.727	0.707	0.666	0.736	0.919	0.29	0.261	0.251	0.253	0.286
LC-2-ad	0.617	0.427	0.439	0.359	0.375	0.494	0.489	0.483	0.447	0.477	0.769	0.866	0.786	0.694	0.767	0.66	0.514	0.585	0.541	0.52
COR-L23	0.689	0.762	0.854	0.955	0.853	0.329	0.308	0.317	0.274	0.339	0.504	0.436	0.468	0.47	0.529	0.479	0.446	0.449	0.437	0.45
NCI-H1650	0.589	–	0.553	0.487	0.545	0.299	0.257	0.305	0.347	0.269	0.383	0.403	0.426	0.503	0.368	0.368	–	0.351	0.308	0.308
RERF-LC-KJ	0.543	0.507	0.414	0.35	0.392	1.05	1.02	0.984	0.85	0.825	0.646	0.613	0.673	0.501	0.635	0.423	0.393	0.342	0.315	0.335
NCI-H1915	1.05	0.993	0.951	0.912	0.855	0.564	0.539	0.526	0.506	0.491	0.269	0.268	0.272	0.268	0.269	0.389	0.379	0.363	0.378	0.33
NCI-H2009	0.875	0.822	0.95	0.786	0.74	0.238	0.25	0.253	0.231	0.247	0.398	0.383	0.357	0.366	0.358	0.515	0.481	0.545	0.424	0.445
NCI-H2126	0.487	0.447	0.36	0.436	0.37	0.342	0.338	0.364	0.342	0.314	0.565	0.519	0.595	0.502	0.425	0.584	0.509	0.485	0.434	0.483
LXF-289	0.829	0.701	0.695	0.706	0.777	0.604	0.561	0.553	0.486	0.533	0.371	0.356	0.366	0.351	0.365	0.492	0.521	0.534	0.468	0.471
HCC-44	0.619	0.619	0.638	0.514	0.533	1	0.968	1.05	0.944	1.02	0.99	0.96	0.981	0.968	1.07	0.233	0.184	0.232	0.395	0.239
PC-14	0.109	0.0863	0.108	0.0958	0.0837	0.0841	0.0837	0.079	0.0664	0.0642	0.14	0.17	0.137	0.171	0.218	0.173	0.123	0.175	0.161	0.171
HOP-62	0.802	0.688	0.757	0.662	0.639	0.415	0.431	0.523	0.48	0.445	0.252	0.181	0.238	0.193	0.219	0.862	0.561	0.748	0.719	0.629
NCI-H358	0.305	0.241	0.279	0.288	0.269	0.14	0.111	0.12	0.118	0.0955	0.191	0.18	0.149	0.163	0.136	0.266	0.171	0.171	0.163	0.175
